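Briefly, cells in 96-well plates were exposed to five compound concentrations for 48 h, and endpoints were estimated by linear interpolation. At the TGI there is no net growth.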
Experiments:
Experiment in all cases: inhibition of tumour cell growth, NCI panel, 48 h
TK-10 renal = test system: TK-10 renal
OVCAR-8 ovarian = test system: OVCAR-8 ovarian
BT-549 breast = test system: BT-549 breast
CAKI-1 renal = test system: CAKI-1 renal
786-0 renal = test system: 786-0 renal
SR leukemia = test system: SR leukemia
SF-268 CNS = test system: SF-268 CNS
RXF 393 renal = test system: RXF 393 renal
A549 NSCLC = test system: A549 NSCLC
MDA-MB-435 = test system: MDA-MB-435
NCI-H226 lung = test system: NCI-H226 lung
OVCAR-5 ovarian = test system: OVCAR-5 ovarian
HOP-92 NSCLC = test system: HOP-92 NSCLC
DU-145 prostate = test system: DU-145 prostate
NCI-H460 lung = test system: NCI-H460 lung
PC-3 prostate = test system: PC-3 prostate
UACC-62 melanoma = test system: UACC-62 melanoma
MDA-N = test system: MDA-N
MALME-3M melanoma = test system: MALME-3M melanoma
HS 578T breast = test system: HS 578T breast
EKVX NSCLC = test system: EKVX NSCLC
U251 CNS = test system: U251 CNS
SK-MEL-5 melanoma = test system: SK-MEL-5 melanoma
UACC-257 melanoma = test system: UACC-257 melanoma
SF-539 CNS = test system: SF-539 CNS
UO-31 renal = test system: UO-31 renal
KM12 colon = test system: KM12 colon
NCI-H23 lung = test system: NCI-H23 lung
HOP-62 NSCLC = test system: HOP-62 NSCLC
COLO 205 colon = test system: COLO 205 colon
SNB-19 CNS = test system: SNB-19 CNS
MOLT-4 leukemia = test system: MOLT-4 leukemia
CCRF-CEM leukemia = test system: CCRF-CEM leukemia
HL-60(TB) leukemia = test system: HL-60(TB) leukemia
OVCAR-4 ovarian = test system: OVCAR-4 ovarian
T-47D breast = test system: T-47D breast
ACHN renal = test system: ACHN renal
HT29 colon = test system: HT29 colon
SW-620 colon = test system: SW-620 colon
HCT-116 colon = test system: HCT-116 colon
HCT-15 colon = test system: HCT-15 colon
SF-295 CNS = test system: SF-295 CNS
LOX IMVI melanoma = test system: LOX IMVI melanoma
SK-MEL-28 melanoma = test system: SK-MEL-28 melanoma
SN12C renal = test system: SN12C renal
MDA-MB-231 breast = test system: MDA-MB-231 breast
RPMI-8226 leukemia = test system: RPMI-8226 leukemia
SNB-75 CNS = test system: SNB-75 CNS
OVCAR-3 ovarian = test system: OVCAR-3 ovarian
SK-OV-3 ovarian = test system: SK-OV-3 ovarian
SK-MEL-2 melanoma = test system: SK-MEL-2 melanoma
NCI/ADR-RES ovarian = test system: NCI/ADR-RES ovarian
M14 melanoma = test system: M14 melanoma
A498 renal = test system: A498 renal
IGROV1 ovarian = test system: IGROV1 ovarian
K-562 leukemia = test system: K-562 leukemia
NCI-H522 lung = test system: NCI-H522 lung
MCF7 breast = test system: MCF7 breast
M19-MEL melanoma = test system: M19-MEL melanoma
DLD-1 colon = test system: DLD-1 colon
LXFL 529 NSCLC = test system: LXFL 529 NSCLC
HCC-2998 colon = test system: HCC-2998 colon
DMS 273 small cell lung = test system: DMS 273 small cell lung
DMS 114 small cell lung = test system: DMS 114 small cell lung

SMILES: CC(C)(C)c1cc(C(=O)C2Cc3ccccc3C(=O)O2)cc(C(C)(C)C)c1O (configuration not stated)
- TGI (TK-10 renal): 28.6 µM
- TGI (OVCAR-8 ovarian): 33.3 µM
- TGI (BT-549 breast): 42.6 µM
- TGI (CAKI-1 renal): 52.5 µM
- TGI (786-0 renal): 24.8 µM
- TGI (SR leukemia): 51.2 µM
- TGI (SF-268 CNS): 40.6 µM
- TGI (RXF 393 renal): 27.7 µM
- TGI (A549 NSCLC): 54.4 µM
- TGI (MDA-MB-435): 32.6 µM
- TGI (NCI-H226 lung): 35.5 µM
- TGI (OVCAR-5 ovarian): 31.8 µM
- TGI (HOP-92 NSCLC): 45.3 µM
- TGI (DU-145 prostate): 28.3 µM
- TGI (NCI-H460 lung): 23.1 µM
- TGI (PC-3 prostate): 28.2 µM
- TGI (UACC-62 melanoma): 26.3 µM
- TGI (MDA-N): 23.9 µM
- TGI (MALME-3M melanoma): 29.6 µM
- TGI (HS 578T breast): > 100 µM
- TGI (EKVX NSCLC): 25.9 µM
- TGI (U251 CNS): 22.2 µM
- TGI (SK-MEL-5 melanoma): 25.1 µM
- TGI (UACC-257 melanoma): 23.9 µM
- TGI (SF-539 CNS): 31.7 µM
- TGI (UO-31 renal): 23.2 µM
- TGI (KM12 colon): 32.1 µM
- TGI (NCI-H23 lung): 35.8 µM
- TGI (HOP-62 NSCLC): 30.8 µM
- TGI (COLO 205 colon): 33.1 µM
- TGI (SNB-19 CNS): 24.7 µM
- TGI (MOLT-4 leukemia): > 100 µM
- TGI (CCRF-CEM leukemia): 34.7 µM
- TGI (HL-60(TB) leukemia): 35 µM
- TGI (OVCAR-4 ovarian): 65.7 µM
- TGI (T-47D breast): > 100 µM
- TGI (ACHN renal): 40.3 µM
- TGI (HT29 colon): 35.5 µM
- TGI (SW-620 colon): 50.4 µM
- TGI (HCT-116 colon): 21.9 µM
- TGI (HCT-15 colon): 37 µM
- TGI (SF-295 CNS): 35.1 µM
- TGI (LOX IMVI melanoma): 26.5 µM
- TGI (SK-MEL-28 melanoma): 36.8 µM
- TGI (SN12C renal): 26.5 µM
- TGI (MDA-MB-231 breast): 31.7 µM
- TGI (RPMI-8226 leukemia): 42.1 µM
- TGI (SNB-75 CNS): 33.8 µM
- TGI (OVCAR-3 ovarian): 25.5 µM
- TGI (SK-OV-3 ovarian): 56.3 µM
- TGI (SK-MEL-2 melanoma): 23.9 µM
- TGI (NCI/ADR-RES ovarian): 50.5 µM
- TGI (M14 melanoma): 25.6 µM
- TGI (A498 renal): 26.7 µM
- TGI (IGROV1 ovarian): 32.6 µM
- TGI (K-562 leukemia): > 100 µM
- TGI (NCI-H522 lung): 27.8 µM
- TGI (MCF7 breast): 38.6 µM

SMILES: CC(=O)Oc1c2c(c(OC(C)=O)c3c1n(C(C)=O)c1ccccc1n3C(C)=O)n(C(C)=O)c1ccccc1n2C(C)=O
- TGI (M19-MEL melanoma): 14.4 µM
- TGI (CAKI-1 renal): 55.1 µM
- TGI (DLD-1 colon): 11.8 µM
- TGI (LXFL 529 NSCLC): 16.5 µM
- TGI (SR leukemia): 7.69 µM
- TGI (SF-268 CNS): 24.9 µM
- TGI (RXF 393 renal): 26.8 µM
- TGI (A549 NSCLC): 24.2 µM
- TGI (NCI-H460 lung): 15.4 µM
- TGI (UACC-62 melanoma): 37 µM
- TGI (MALME-3M melanoma): 7.56 µM
- TGI (U251 CNS): 29.5 µM
- TGI (SK-MEL-5 melanoma): 39 µM
- TGI (UACC-257 melanoma): 13 µM
- TGI (SF-539 CNS): 30.8 µM
- TGI (UO-31 renal): 25.2 µM
- TGI (KM12 colon): 31.5 µM
- TGI (NCI-H23 lung): 25.7 µM
- TGI (HOP-62 NSCLC): 53.5 µM
- TGI (HCC-2998 colon): 18.9 µM
- TGI (SNB-19 CNS): 53.8 µM
- TGI (DMS 273 small cell lung): 10.6 µM
- TGI (MOLT-4 leukemia): 8.7 µM
- TGI (CCRF-CEM leukemia): 15.6 µM
- TGI (HL-60(TB) leukemia): 6.1 µM
- TGI (DMS 114 small cell lung): 7.96 µM
- TGI (OVCAR-4 ovarian): 40.5 µM
- TGI (ACHN renal): 25.4 µM
- TGI (HT29 colon): 13 µM
- TGI (SW-620 colon): 5.67 µM
- TGI (HCT-15 colon): 13 µM
- TGI (SF-295 CNS): 28.9 µM
- TGI (LOX IMVI melanoma): 24.6 µM
- TGI (SK-MEL-28 melanoma): 16.8 µM
- TGI (SN12C renal): 19.3 µM
- TGI (RPMI-8226 leukemia): 10.8 µM
- TGI (SNB-75 CNS): 46.1 µM
- TGI (OVCAR-3 ovarian): 5.68 µM
- TGI (SK-OV-3 ovarian): 50 µM
- TGI (SK-MEL-2 melanoma): 24 µM
- TGI (M14 melanoma): 20.7 µM
- TGI (A498 renal): 39 µM
- TGI (K-562 leukemia): > 100 µM
- TGI (NCI-H522 lung): 5.97 µM

— PubChem BioAssay (NCI)
